Test results taken from paper PMC2990756, “Quantitative High-Throughput Screening Identifies 8-Hydroxyquinolines as Cell-Active Histone Demethylase Inhibitors” (PLoS ONE, 2010).

target: T1, JMJD2E (Homo sapiens, UniProt B2RXH2); assay: JMJD2E FDH-coupled assay under low and high iron conditions (iron chelation profile); type: biochemical; parameters: The catalytic domain of human JMJD2E (residues 1–337); His6 (N); made in house; host or cells: E. coli; settings: 25 and 2.5 µM Fe(II)
T1 sequence (B2RXH2 1-337): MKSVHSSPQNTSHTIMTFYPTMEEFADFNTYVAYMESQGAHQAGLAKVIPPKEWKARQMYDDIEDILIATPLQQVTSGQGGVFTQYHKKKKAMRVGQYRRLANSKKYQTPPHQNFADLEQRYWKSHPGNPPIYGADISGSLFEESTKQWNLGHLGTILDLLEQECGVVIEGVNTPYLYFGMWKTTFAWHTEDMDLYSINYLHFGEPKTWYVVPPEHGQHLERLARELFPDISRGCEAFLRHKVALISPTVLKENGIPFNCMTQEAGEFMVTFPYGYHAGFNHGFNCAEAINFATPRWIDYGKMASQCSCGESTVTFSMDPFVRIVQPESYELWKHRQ
Procedure: The prioritized compounds were also evaluated in the screening assay using two different ferrous ion concentrations (termed high iron and low iron, respectively), in order to assess their propensity for iron chelation.
The ratio of IC50 values under high iron to low iron was calculated for each compound.

| ratio of IC50 values under high iron to low iron | SMILES |
| --- | --- |
| 5.9 | O=C(O)CN(CCN(CC(=O)O)CC(=O)O)CC(=O)O [EDTA, reference compound] |

target: T2, formaldehyde dehydrogenase (FDH) (Pseudomonas putida, UniProt P46154); assay: FDH coupling enzyme counterscreen; type: biochemical; settings: Figure 2; 0.025 U/mL FDH, 10 µM formaldehyde; read-out: IC50 values in μM, FDH
T2 construct: purchased Sigma-Aldrich
T2 sequence (P46154 whole entry): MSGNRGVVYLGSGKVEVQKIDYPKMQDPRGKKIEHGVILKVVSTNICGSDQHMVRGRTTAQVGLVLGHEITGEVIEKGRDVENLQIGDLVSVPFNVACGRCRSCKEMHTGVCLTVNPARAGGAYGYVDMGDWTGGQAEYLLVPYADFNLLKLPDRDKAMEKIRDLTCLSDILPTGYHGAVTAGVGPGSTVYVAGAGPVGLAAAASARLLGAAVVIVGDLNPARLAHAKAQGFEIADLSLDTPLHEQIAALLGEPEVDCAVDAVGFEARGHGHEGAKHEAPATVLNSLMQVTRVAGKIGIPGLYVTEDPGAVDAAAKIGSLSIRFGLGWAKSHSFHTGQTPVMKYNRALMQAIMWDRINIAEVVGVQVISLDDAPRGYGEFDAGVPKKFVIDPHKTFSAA
Source text: Dimethylsulfoxide certified ACS grade (DMSO) was from Fisher, Inc. HEPES buffer was obtained from Gibco. […] Black solid-bottom 1,536-well assay plates were from Greiner Bio-One (Monroe, NC).

| SMILES | IC50 [µM] |
| --- | --- |
| CC1(OC(=O)CCc2ccccc2)C(=O)C=C2C=C(c3ccc(C#N)cc3)N(C3CC3)C=C2C1=O (centres unmarked) [SID 26725552] | > 57 |

same assay, conditions: IC50 values in μM, FDH, Figure 2; 0.025 U/mL FDH, 10 µM formaldehyde

| SMILES | IC50 [µM] |
| --- | --- |
| O=C(Cc1ccccc1)N1CCN(Cc2ccccn2)CC1 [SID 4263376] | > 57 |

same assay, conditions: Table S1; FDH counterscreen

| SMILES | qHTS Data: jmjd2e fdh CurveClass |
| --- | --- |
| O=C(O)C(=O)O.O=C(c1ccccc1)N1CCN(CC2CC=CCC2)CC1 (centres unmarked) [compound 844960] | Inconclusive |
| Cc1ccc(NC2=CC(=O)CC(C)(C)C2)c(N)c1 [compound 849268] | Inactive |
| CC1=C(C(N)=O)C(c2ccc3c(c2)OCO3)n2nc(-c3cccc(C)c3)nc2N1 (centres unmarked) [compound 4245376] | Inactive |
| Cc1nc(NC(=O)c2oc3ccccc3c2C)sc1C(=O)N(C)C [compound 4262050] | Poor quality curve |
| O=C(Cc1ccccc1)N1CCN(Cc2ccccn2)CC1 [compound 4263376] | Inactive |
| CC(C)NC[C@H](O)c1ccc(O)c(O)c1 [compound 11112573] | Inactive |
| O=C(NNC(=O)c1ccc(O)cc1O)c1ccc(Cl)cc1 [compound 17414133] | Inactive |
| Cc1ccc(SCCCCN2CCNCC2)cc1.O=C(O)C(=O)O [compound 17504558] | Inactive |
| COc1cc(CNCCN2CCOCC2)ccc1OCc1c(Cl)cccc1Cl.Cl [compound 17505294] | Inactive |
| O=c1cc(O)c2sc(Nc3ccc(F)cc3)nc2[nH]1 [compound 17505973] | Inactive |
| FC(F)(F)c1ccccc1CN1CCN(C2CCCCCC2)CC1.O=C(O)C(=O)O [compound 22403162] | Inactive |
| C/C(Cn1nnc([N+](=O)[O-])n1)=N\NC(=O)c1ccc(O)cc1O [compound 22414653] | Inactive |
| CCC(=O)c1ccccc1OCCN1CCN(Cc2ccccc2)CC1.O=C(O)C(=O)O [compound 24782649] | Inactive |
| Clc1ccc(SCCN2CCNCC2)cc1.O=C(O)C(=O)O [compound 24783981] | Inactive |
| CCNc1nc(C(=O)O)nc(N2CCOCC2)n1 [compound 24789924] | Inactive |
| O=C(CN1CCN(c2ncccn2)CC1)N1CCCC1.O=C(O)C(=O)O [compound 24790164] | Inactive |
| O=C(CN1CCCCCC1)NCC1CCCO1.O=C(O)C(=O)O (centres unmarked) [compound 24790169] | Inactive |
| Cc1cccc(NCc2ccc(O)c3ncccc23)c1 [compound 24790252] | Inactive |
| S=c1nc(C2COc3ccccc3O2)[nH][nH]1 (centres unmarked) [compound 24801312] | -1.3 |
| CC1CCN(CC(=O)NCCc2ccc(F)cc2)CC1.O=C(O)C(=O)O [compound 24804760] | Poor quality curve |
| O=C(O)C(=O)O.S=C(NCC1CCCO1)N1CCN(Cc2ccccc2)CC1 (centres unmarked) [compound 24807070] | Inactive |
| COc1cccc(CN2CCN(C(=O)c3ccc(-c4ccccc4)cc3)CC2)c1OC.O=C(O)C(=O)O [compound 24807835] | Inactive |

same assay, conditions: Table S1; FDH counterscreen; unit not in table, from Figure 2; read-out: qHTS Data: jmjd2e fdh IC50

| SMILES | IC50 [µM] |
| --- | --- |
| O=C(O)C(=O)O.O=C(c1ccccc1)N1CCN(CC2CC=CCC2)CC1 (centres unmarked) [compound 844960] | 5.01 |
| O=C(CC1Sc2ncnn2C1=O)Nc1ccccc1 (centres unmarked) [compound 14735867] | 0.28 |
| Fc1ccc(/C=C2\CCCC3=C2Nc2ncnn2C3c2ccc(F)cc2)cc1 (centres unmarked) [compound 14745056] | 10 |
| CCOc1ccc2ccccc2c1/C=N/NC(=O)CNC(=O)C(c1ccccc1)c1ccccc1 [compound 17512004] | 10 |
| S=c1nc(C2COc3ccccc3O2)[nH][nH]1 (centres unmarked) [compound 24801312] | 15.8 |
| Cc1cc(N(C)/N=C/c2ccccc2)nc(-c2ccccc2O)n1 [compound 24801833] | 39.8 |
| Cc1cccc(N2C(=O)CC(Sc3ncn[nH]3)C2=O)c1 (centres unmarked) [compound 24809940] | 0.28 |
